Several values for one entry are separate records, joined by “and”; a condition that tells them apart may be missing. Identical values can stand only once.
Key:
[1] = system: luciferase expression from transfected pRL-CMV plasmid in HeLa cells; assay: Luciferase assay in HeLa cells transiently transfected with pRL-CMV plasmid; format: cell-based; conditions: for RLU/mg mean: HeLa 100000/12-well plates, 1.5 μg/well
Experimental: Cell cultures. The uterine cervical carcinoma cell line HeLa, ATCC was used. The cells were cultured in RPMI 1640 Medium (eurobio), containing antibiotics and 10% foetal calf serum.
Treatment with acetyl-L-carnitine (ALC). 4×10^6 and 5×10^6 cells cultured in a medium containing ALC at final concentrations of 5 mM and 10 mM, respectively, were seeded in two 125 cm^3 flasks, whereas 2×10^6 cells not treated with ALC were plated in a 75 cm^3 flask. The treatment was repeated after 48 h (coinciding with the seeding of the cells for transfection) and after 72 h (at the end of transfection) and was also repeated after 120 h only in the case of samples transfected for lysis at 72 h.
Transient transfection of pRL-CMV plasmid. The cells were seeded for transfection 24 h before in 12-well plates (Corning), in amounts corresponding to 10^5 cells per well. The transfection was carried out in triplicate for each sample using the liposome DOTAP (Boehringer-Mannheim, Indianapolis, Ind.) and the plasmid pRL-CMV (Promega cat. N° E2261). In brief, 1.5 μg/well of DNA and 9.2 μM/well of liposome were used per sample, considering a final volume of 1050 μl/sample; the transfection mixture (25 μl /sample) was left at ambient temperature for 30 min and then HBS 2× (20 mM HEPES, 150 mM NaCl, pH 7.4) was added in amounts of 25 μl/ sample, and 50 μl/sample of the solution thus obtained was added to the cells for 5 hours. After carrying out three washings with PBS (phosphate buffer pH 7.4) without calcium and magnesium, the cells were cultured in growth medium containing ALC at the concentrations indicated in the treatments up to the time of cell lysis for the luciferase assay. As a control, naked DNA was added in a 1× HBS solution.
The cells were washed with PBS (phosphate buffer pH 7.4) without calcium and magnesium and subjected to lysis by means of the addition of 200 μl of lysis buffer contained in the GeneLux L002-100 kit (Wallac) used for the luciferase assay. After 20 min, total proteins were collected and 10 μl of each sample were assayed for luciferase, following the procedures indicated in the kit; the assay was carried out in 96-multiwell plates using the Victor^2 luminometer (Wallac). The luminescence readings obtained, expressed in relative light units (RLU), were normalised for mg of total proteins, calculated using the Bradford Method.

[2] = system: transfected intracellular plasmidic DNA (pRL-CMV) in HeLa cells; assay: Slot blot quantification of transfected intracellular plasmidic DNA; format: cell-based
Experimental: To verify if the positive effect of ALC on luciferase activity was related to an activation of transcriptional machinery or to an increasing of cell permeability, we decided to quantify the total amount of transfected intracellular plasmidic DNA by Slot blot analysis.
Cell culture. Cervical carcinoma cell line HeLa (ATCC) were maintained in RPMI medium (Europio) supplemented with 10% foetal calf serum, 1% P/S in a humidified atmosphere with 5% CO2 ALC treatment 5×10^6 cells were plated in a 125-cm^3 flask and maintained in RPMI, supplemented as described above, containing ALC at two concentrations (5 mM and 10 mM) 4 days before transfection. The treatment was repeated at the end of transfection. Untreated cells were cultured in the same condition and used as control.
Transient Expression of pRL-CMV. 10^5 cells/well were plated 1 day before transfection in 12 multiwells plate (Corning). DOTAP liposome (Boehringer-Mannheim, Indianapolis, Ind.) and pRL-CMV plasmid (Promega cat. N° E2261) were used for transfection, 6 wells/sample. Briefly, 1.5 μg/well of DNA and a water solution of liposome at 9.2 μM were mixed at room temperature (25 μl/sample) to form DNA-liposome complex. After incubation for 30 min, the same volume/well of HBS 2× (20 mM HEPES, 150 mM NaCl, pH 7.4) was added and the transfection mixture was aliquotated (50 μl/well in supplemented medium). The cells were incubated with the complex for 5 h and the complex removed by washing with PBS (phosphate-buffered saline, pH 7.4, Ca^++ and Mg^++ free). Cells were maintained in supplemented medium, containing ALC, for 24h and then used for analysis. Nude DNA in HBS 1× (pRL-CMV) was transfected as control.
DNA extraction. Total cellular DNA was extracted by alkaline lysis from transfected cells according to the method reported by Maniatis. After washing with PBS, cells were collected with PBS (1 ml/well) and centrifuged at 1500×g for 10 min at r.t.
According to protocol, each pellet, placed on ice, was lysed using: 100 μl of solution I [50 mM glucose, 25 mM Tris-HCl (pH=8), 10 mM EDTA (pH=8)], 200 μl of solution II [0.2 N NaOH, 1% SDS], 150 μl of solution III (5M potassium acetate, glacial acetic acid]. After centrifugation at 12000×g for 5 min at 4° C., surnatant was collected and DNA was precipitated with EtOH. Pellet was resuspended in TE 1× (50 μl/sample).
Probe labelling. The probe, the luciferase gene, was obtained by digestion of pRL-CMV with HindIII for 2 h at 37° C. and then with BamHI in the same condition. After digestion, the mixture was electrophoresed on 0.8% agarose gel in TAE 1× buffer (40 mM Tris-HCl (pH 7.8), 1.1 mM EDTA and 37 mM sodium acetate) and the fragment corresponding to luciferase gene was isolated by excision. The labelling of luciferase gene was performed using the Rediprime II DNA labelling system (Amersham Pharmacia biotech, cat n. RPN 1633) and Redivue stabilised [α-^32P]dCTP (Amersham Pharmacia biotech, cat n. AA 0005) according to purchased protocol.
Slot Blot. DNA samples were absorbed on positively charged Nylon membrane (Boehringer, cat. n. 1209299) using Biorad Slot Blot apparatus. The DNA was linked to the filter by U.V. Stratalinker-2400 (Stratagene). After pre-incubation of the filter with QuikHyb Hybridization Solution (Stratagene, cat. n. 201220) for 20 min at 68° C., 2.5×10^6 cpm/ml of labelled probe was added, after boiling, with salmon sperm DNA, for 2 min. The hybridization was performed at 68° C. for 1 h, and then the filter was washed twice with buffer I (SSC 2×, SDS 0.1%) for 15 min at room temperature and then with buffer II (SSC 0.1×, SDS 0.1%) for 30 min at 60° C. The filter was exposed to “Phosphor Imager” box and then analysed by densitometry using a IPlab Gel software.

[3] = Dotap/DNA complex + ALC 5 mM, slots 19-24
[4] = Dotap/DNA complex + ALC 10 mM, slots 31-36
[5] = nude DNA + ALC 5 mM, slots 13-18

Question: Which RLU/mg mean ([1]; 5 mM ALC + ETS (no Dotap)) does the source give for `CC(=O)O[C@H](CC(=O)[O-])C[N+](C)(C)C` [ALC, acetyl L-carnitine] here?
Answer: Its RLU/mg mean is 17,025 RLU/mg.

Question: What about the RLU/mg mean ([1]; 5 mM ALC + LUC (no Dotap)) of the same molecule?
Answer: The RLU/mg mean was 18,060 RLU/mg.

Question: What about the RLU/mg mean ([1]; 5 mM ALC + dota + LUC) of the same molecule?
Answer: The RLU/mg mean was 779,340 RLU/mg.

Question: What about the RLU/mg mean ([1]; 5 mM ALC + dotap + ETS) of the same molecule?
Answer: The RLU/mg mean was 22,411 RLU/mg.

Question: And the “increase of mean RLU per mg of total proteins as compared to untreated samples” value ([1]; 5 mM ALC, lysates at 24 h)?
Answer: Its value is “approximately 1.6 fold”.

Question: And the RLU/mg mean ([1]; 10 mM ALC + ETS (no Dotap))?
Answer: The RLU/mg mean was 17,724 RLU/mg.

Question: And the RLU/mg mean ([1]; 10 mM ALC + LUC (no Dotap))?
Answer: The RLU/mg mean was 20,481 RLU/mg.

Question: What about the RLU/mg mean ([1]; 10 mM ALC + dotap + ETS) of the same molecule?
Answer: Its RLU/mg mean is 20,520 RLU/mg.

Question: And the RLU/mg mean ([1]; 10 mM ALC + dotap + LUC)?
Answer: The RLU/mg mean was 750,034 RLU/mg.

Question: What about the “luciferase expression compared with 5 mM ALC” value ([1]; 10 mM ALC, lysates at 24 h) of the same molecule?
Answer: The value was “no additional increase”.

Question: What about the “RLUs per mg of proteins, treated vs untreated samples” value ([1]; lysates at 48 h after transfection) of the same molecule?
Answer: Its value is “no significant differences”.

Question: What about the luciferase expression ([1]; lysates at 72 h) of the same molecule?
Answer: Its luciferase expression is “no luciferase expression”.

Question: What about the “Slot blot densitometry vs untreated” value ([2]; 10 mM ALC) of the same molecule?
Answer: The value was “little decrease”.

Question: What about the “Slot blot densitometry, transfected cells in presence vs absence of ALC” value ([2]; 24 h after transfection) of the same molecule?
Answer: The value was “no difference”.

Question: And the “densitometric volume, mean” value [2, 3]?
Answer: The value was 240634.5 relative units.

Question: What about the “densitometric volume, single values” [2, 3] of the same molecule?
Answer: Its value is 222013 relative units and 255756 relative units and 253422 relative units and 234654 relative units and 239053 relative units and 238909 relative units.

Question: And the “densitometric volume, mean” value [2, 4]?
Answer: The value was 165345 relative units.

Question: What about the “densitometric volume, single values” [2, 4] of the same molecule?
Answer: Its value is 173870 relative units and 225644 relative units and 116848 relative units and 114911 relative units and 157762 relative units and 203035 relative units.

Question: And the “densitometric volume, mean” value ([2]; Nude DNA + ALC 10 mM, slots 25-30)?
Answer: The value was 52595.2 relative units.

Question: And the “densitometric volume, mean” value [2, 5]?
Answer: Its value is 61441.5 relative units.

Question: And the “densitometric volume, single values” [2, 5]?
Answer: Its value is 59846 relative units and 58324 relative units and 61431 relative units and 70373 relative units and 63045 relative units and 55630 relative units.
